{"source": "ChEMBL document CHEMBL4130451", "about": "“Design and Synthesis of N-Aryl Phenoxyethoxy Pyridinones as Highly Selective and CNS Penetrant mGlu3 NAMs” (ACS Med Chem Lett, 2017)", "key": {"[1]": {"target": "Metabotropic glutamate receptor 3 (Rattus norvegicus, UniProt P31422)", "sequence (P31422 whole entry)": "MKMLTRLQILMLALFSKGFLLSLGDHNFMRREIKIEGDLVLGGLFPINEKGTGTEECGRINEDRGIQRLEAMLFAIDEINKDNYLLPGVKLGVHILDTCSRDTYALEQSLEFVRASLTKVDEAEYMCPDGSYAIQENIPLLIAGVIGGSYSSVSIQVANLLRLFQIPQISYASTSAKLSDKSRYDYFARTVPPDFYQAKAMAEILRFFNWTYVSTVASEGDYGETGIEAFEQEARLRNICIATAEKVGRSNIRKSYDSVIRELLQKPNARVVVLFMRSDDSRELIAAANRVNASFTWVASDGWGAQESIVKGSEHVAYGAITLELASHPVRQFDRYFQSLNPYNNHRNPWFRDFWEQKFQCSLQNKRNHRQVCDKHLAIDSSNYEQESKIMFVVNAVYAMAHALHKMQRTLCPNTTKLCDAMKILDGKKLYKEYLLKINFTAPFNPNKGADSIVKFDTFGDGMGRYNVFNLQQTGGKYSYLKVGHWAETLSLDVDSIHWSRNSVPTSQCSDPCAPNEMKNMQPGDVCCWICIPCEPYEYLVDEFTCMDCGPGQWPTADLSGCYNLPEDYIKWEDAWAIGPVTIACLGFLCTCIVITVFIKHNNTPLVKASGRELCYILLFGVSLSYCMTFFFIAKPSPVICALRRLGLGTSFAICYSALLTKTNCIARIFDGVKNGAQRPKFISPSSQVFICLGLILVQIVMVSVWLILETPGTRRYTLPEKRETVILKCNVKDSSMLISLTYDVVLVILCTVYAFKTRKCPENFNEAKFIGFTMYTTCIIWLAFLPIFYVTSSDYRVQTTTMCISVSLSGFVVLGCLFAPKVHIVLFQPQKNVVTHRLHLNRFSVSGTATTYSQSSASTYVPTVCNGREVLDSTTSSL", "assay": "Negative allosteric modulation of rat mGlu3 receptor expressed in TREX cells coexpressing Galpha15 assessed as inhibition of glutamate induced-calcium mobilization preincubated for 2.3 mins followed by glutamate addition measured for 2.6 mins by Fluo-4 AM dye based fluorescence assay", "assay_type": "functional, cell-based"}, "[2]": {"target": "Metabotropic glutamate receptor 5 (Rattus norvegicus, UniProt P31424)", "assay": "Positive allosteric modulation of rat mGlu5 receptor expressed in HEK293A cells assessed as increase in glutamate induced-calcium mobilization preincubated for 2.3 mins followed by glutamate addition measured for 1.9 mins by Fluo-4 AM dye based fluorescence assay", "assay_type": "functional, cell-based"}, "[3]": {"assay": "Fraction unbound in rat plasma at 5 uM after 4 hrs by equilibrium dialysis based LC/MS/MS analysis", "assay_type": "ADME, cell-free"}, "[4]": {"assay": "Fraction unbound in rat brain homogenate at 5 uM after 6 hrs by equilibrium dialysis based LC/MS/MS analysis", "assay_type": "ADME, tissue-based"}, "[5]": {"assay": "Unbound brain-to-plasma concentration ratio in rat", "assay_type": "ADME", "settings": "read-out: K(p,uu,brain)"}, "[6]": {"target": "Metabotropic glutamate receptor 1 (Homo sapiens) (UniProt Q13255)", "assay": "Negative allosteric modulation of human mGlu1 receptor expressed in TREX293 cells assessed as inhibition of glutamate induced-calcium mobilization preincubated for 2.3 mins followed by glutamate addition measured for 2.6 mins by Fluo-4 AM dye based fluorescence assay", "assay_type": "functional, cell-based"}, "[7]": {"target": "Metabotropic glutamate receptor 6 (Homo sapiens) (UniProt O15303)", "assay": "Negative allosteric modulation of human mGlu6 receptor expressed in HEK/GIRK cells assessed as inhibition of glutamate induced-calcium mobilization preincubated for 2.3 mins followed by glutamate addition measured for 2.6 mins by Fluo-4 AM dye based fluorescence assay", "assay_type": "functional, cell-based"}, "[8]": {"assay": "Fraction unbound in mouse plasma at 5 uM after 4 hrs by equilibrium dialysis based LC/MS/MS analysis", "assay_type": "ADME, cell-free"}, "[9]": {"assay": "Brain to plasma partition coefficient, Kp of the compound in mouse", "assay_type": "ADME"}, "[10]": {"assay": "Unbound brain to plasma concentration ratio in mouse", "assay_type": "ADME", "settings": "read-out: K(p,uu,brain)"}, "Mus musculus": {"tested_on": "Mus musculus", "assay": "Antidepressant activity in CD-1 mouse assessed as reduction in immobility time administered ip 15 mins prior to test measured for 6 mins by tail suspension test", "assay_type": "functional", "settings": "CD-1, ip, read-out: MED"}, "[11]": {"assay": "Drug uptake in Harlan CD-1 mouse brain at 3 mg/kg, ip by LC/MS-MS analysis", "assay_type": "ADME, organism-based", "settings": "in vivo, read-out: Drug uptake"}, "[12]": {"target": "Alpha-1A adrenergic receptor (Rattus norvegicus) (UniProt P43140)", "assay": "Inhibition of rat adrenergic alpha 1A receptor at 10 uM relative to control"}, "[13]": {"target": "Alpha-1D adrenergic receptor (Homo sapiens) (UniProt P25100)", "assay": "Inhibition of human adrenergic alpha 1D receptor at 10 uM relative to control"}, "[14]": {"target": "Alpha-2A adrenergic receptor (Homo sapiens) (UniProt P08913)", "sequence (P08913 whole entry)": "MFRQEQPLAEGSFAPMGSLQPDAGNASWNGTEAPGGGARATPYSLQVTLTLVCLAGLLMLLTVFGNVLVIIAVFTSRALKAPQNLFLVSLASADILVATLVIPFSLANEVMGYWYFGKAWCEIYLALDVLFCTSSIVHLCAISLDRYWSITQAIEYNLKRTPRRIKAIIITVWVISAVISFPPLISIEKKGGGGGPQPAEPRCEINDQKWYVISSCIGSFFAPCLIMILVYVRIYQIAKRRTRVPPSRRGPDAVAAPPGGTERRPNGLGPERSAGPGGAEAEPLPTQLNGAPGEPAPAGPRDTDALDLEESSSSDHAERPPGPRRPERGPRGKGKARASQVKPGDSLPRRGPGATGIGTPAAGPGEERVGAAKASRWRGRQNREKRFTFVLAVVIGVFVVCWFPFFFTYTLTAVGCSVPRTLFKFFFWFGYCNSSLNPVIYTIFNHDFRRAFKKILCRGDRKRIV", "assay": "Inhibition of human adrenergic alpha 2A receptor at 10 uM relative to control"}, "[15]": {"target": "Beta-1 adrenergic receptor (Homo sapiens) (UniProt P08588)", "sequence (P08588 whole entry, looked up)": "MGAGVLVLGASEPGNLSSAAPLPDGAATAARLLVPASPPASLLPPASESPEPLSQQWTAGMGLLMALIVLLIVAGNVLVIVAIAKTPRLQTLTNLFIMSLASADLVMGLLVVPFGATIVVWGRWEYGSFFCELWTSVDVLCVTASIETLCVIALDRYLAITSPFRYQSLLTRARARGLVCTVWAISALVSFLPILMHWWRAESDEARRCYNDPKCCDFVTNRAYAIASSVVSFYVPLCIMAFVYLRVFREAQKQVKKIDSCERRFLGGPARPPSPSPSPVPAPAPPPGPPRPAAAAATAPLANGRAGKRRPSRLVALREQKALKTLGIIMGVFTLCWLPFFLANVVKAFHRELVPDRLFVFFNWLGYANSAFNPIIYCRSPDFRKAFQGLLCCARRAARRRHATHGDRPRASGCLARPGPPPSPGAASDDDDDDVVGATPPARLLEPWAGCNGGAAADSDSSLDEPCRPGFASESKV", "assay": "Inhibition of human adrenergic beta1 receptor at 10 uM relative to control"}, "Rattus norvegicus [16]": {"species_on_record": "Rattus norvegicus", "assay": "Inhibition of rat N-type calcium channel […] at 10 uM relative to control"}, "[17]": {"target": "Cannabinoid receptor 1 (Homo sapiens) (UniProt P21554)", "sequence (P21554 whole entry)": "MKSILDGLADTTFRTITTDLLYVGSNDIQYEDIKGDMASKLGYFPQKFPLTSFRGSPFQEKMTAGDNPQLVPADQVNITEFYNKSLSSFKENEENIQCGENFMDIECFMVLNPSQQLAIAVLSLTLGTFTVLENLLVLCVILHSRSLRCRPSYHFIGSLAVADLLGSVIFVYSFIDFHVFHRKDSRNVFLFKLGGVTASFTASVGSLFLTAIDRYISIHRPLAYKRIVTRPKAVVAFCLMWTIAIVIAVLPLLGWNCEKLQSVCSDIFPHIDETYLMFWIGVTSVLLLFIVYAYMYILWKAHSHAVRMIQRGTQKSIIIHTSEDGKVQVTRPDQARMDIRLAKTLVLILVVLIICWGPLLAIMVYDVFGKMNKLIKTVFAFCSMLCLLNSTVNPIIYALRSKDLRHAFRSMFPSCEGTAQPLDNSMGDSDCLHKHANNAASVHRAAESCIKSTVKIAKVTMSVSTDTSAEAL", "assay": "Inhibition of human cannabinoid CB1 receptor at 10 uM relative to control"}, "[18]": {"target": "D(1A) dopamine receptor (Homo sapiens) (UniProt P21728)", "sequence (P21728 whole entry)": "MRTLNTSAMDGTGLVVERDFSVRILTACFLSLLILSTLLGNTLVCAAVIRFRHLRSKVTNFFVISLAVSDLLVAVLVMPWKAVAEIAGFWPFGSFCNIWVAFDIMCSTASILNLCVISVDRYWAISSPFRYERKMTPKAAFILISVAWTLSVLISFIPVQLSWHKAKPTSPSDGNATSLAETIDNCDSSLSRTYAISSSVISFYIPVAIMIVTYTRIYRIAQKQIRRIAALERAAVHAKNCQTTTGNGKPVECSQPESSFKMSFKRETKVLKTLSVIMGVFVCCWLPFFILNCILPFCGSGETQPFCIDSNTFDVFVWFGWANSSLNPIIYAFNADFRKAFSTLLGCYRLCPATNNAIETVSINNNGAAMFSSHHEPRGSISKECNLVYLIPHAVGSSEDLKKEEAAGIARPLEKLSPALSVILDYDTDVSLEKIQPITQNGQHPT", "assay": "Inhibition of human dopamine D1 receptor at 10 uM relative to control"}, "[19]": {"target": "D(2) dopamine receptor (Homo sapiens) (UniProt P14416)", "assay": "Inhibition of human dopamine D2S receptor at 10 uM relative to control"}, "[20]": {"target": "D(3) dopamine receptor (Homo sapiens) (UniProt P35462)", "assay": "Inhibition of human dopamine D3 receptor at 10 uM relative to control"}, "Homo sapiens [21]": {"species_on_record": "Homo sapiens", "assay": "Inhibition of human dopamine D4.2 receptor at 10 uM relative to control"}, "[22]": {"target": "Endothelin-1 receptor (Homo sapiens) (UniProt P25101)", "sequence (P25101 whole entry)": "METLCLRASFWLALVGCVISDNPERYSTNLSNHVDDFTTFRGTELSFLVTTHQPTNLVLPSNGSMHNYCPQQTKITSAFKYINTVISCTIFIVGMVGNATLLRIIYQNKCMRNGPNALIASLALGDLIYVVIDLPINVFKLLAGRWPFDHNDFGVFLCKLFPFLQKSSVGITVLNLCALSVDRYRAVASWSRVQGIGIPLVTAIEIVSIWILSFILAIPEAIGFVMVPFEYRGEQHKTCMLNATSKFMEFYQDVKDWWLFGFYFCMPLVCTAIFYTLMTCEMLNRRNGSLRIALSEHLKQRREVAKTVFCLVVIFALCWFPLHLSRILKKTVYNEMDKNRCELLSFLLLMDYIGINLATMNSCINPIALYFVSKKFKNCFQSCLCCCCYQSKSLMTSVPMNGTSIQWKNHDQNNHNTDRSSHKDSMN", "assay": "Inhibition of human endothelin A receptor at 10 uM relative to control"}, "[23]": {"target": "Endothelin receptor type B (Homo sapiens) (UniProt P24530)", "assay": "Inhibition of human endothelin B receptor at 10 uM relative to control"}, "[24]": {"target": "Estrogen receptor (Homo sapiens) (UniProt P03372)", "sequence (P03372 whole entry)": "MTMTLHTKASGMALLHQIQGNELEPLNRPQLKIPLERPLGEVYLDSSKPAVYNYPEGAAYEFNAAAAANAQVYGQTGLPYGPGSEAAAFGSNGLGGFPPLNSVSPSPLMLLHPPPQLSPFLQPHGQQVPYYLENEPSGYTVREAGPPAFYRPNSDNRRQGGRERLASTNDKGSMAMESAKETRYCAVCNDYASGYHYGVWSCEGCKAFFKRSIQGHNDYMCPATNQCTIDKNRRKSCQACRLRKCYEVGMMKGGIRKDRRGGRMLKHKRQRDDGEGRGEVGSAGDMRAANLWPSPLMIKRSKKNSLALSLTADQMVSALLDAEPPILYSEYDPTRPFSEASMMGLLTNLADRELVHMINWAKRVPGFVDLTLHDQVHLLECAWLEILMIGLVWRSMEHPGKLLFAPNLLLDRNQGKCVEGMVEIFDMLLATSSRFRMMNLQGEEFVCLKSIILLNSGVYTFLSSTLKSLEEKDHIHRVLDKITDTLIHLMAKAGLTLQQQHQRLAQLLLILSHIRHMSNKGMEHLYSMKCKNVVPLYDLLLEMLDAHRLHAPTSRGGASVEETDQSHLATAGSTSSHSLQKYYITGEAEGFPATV", "assay": "Inhibition of human ERalpha receptor at 10 uM relative to control"}, "[25]": {"target": "Glucocorticoid receptor (Homo sapiens) (UniProt P04150)", "assay": "Inhibition of human glucocorticoid receptor at 10 uM relative to control"}, "[26]": {"target": "T1, Glutamate NMDA receptor (Rattus norvegicus) (UniProt P35439+Q00959+Q00960+Q00961+Q62645+Q8VHN2+Q9R1M7)", "assay": "Inhibition of rat glutamate NMDA receptor agonist binding site at 10 uM relative to control", "assay_type": "protein-complex assay"}, "[27]": {"target": "T1, Glutamate NMDA receptor (Rattus norvegicus)", "assay": "Inhibition of rat glutamate NMDA receptor glycine binding site at 10 uM relative to control", "assay_type": "protein-complex assay"}, "[28]": {"target": "T1, Glutamate NMDA receptor (Rattus norvegicus)", "assay": "Inhibition of rat glutamate NMDA receptor phencyclidine binding site at 10 uM relative to control", "assay_type": "protein-complex assay"}, "[29]": {"target": "Histamine H1 receptor (Homo sapiens) (UniProt P35367)", "sequence (P35367 whole entry)": "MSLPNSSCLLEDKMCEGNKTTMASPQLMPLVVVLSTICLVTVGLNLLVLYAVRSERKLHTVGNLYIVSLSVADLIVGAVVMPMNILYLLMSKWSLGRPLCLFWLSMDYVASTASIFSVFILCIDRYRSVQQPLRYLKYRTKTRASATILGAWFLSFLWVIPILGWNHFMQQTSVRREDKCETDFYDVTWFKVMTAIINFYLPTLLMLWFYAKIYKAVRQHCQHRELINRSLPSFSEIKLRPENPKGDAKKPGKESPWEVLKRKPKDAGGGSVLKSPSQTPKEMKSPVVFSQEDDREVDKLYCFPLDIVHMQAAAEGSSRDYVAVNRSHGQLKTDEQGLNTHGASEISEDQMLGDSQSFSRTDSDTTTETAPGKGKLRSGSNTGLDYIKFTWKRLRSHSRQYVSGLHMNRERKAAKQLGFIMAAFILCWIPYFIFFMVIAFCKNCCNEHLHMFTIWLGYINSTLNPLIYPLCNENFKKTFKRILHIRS", "assay": "Inhibition of human histamine H1 receptor at 10 uM relative to control"}, "[30]": {"target": "Histamine H2 receptor (Homo sapiens) (UniProt P25021)", "assay": "Inhibition of human histamine H2 receptor at 10 uM relative to control"}, "Rattus norvegicus [31]": {"species_on_record": "Rattus norvegicus", "assay": "Inhibition of central rat I2 receptor imidazoline binding site at 10 uM relative to control"}, "[32]": {"target": "Melatonin receptor type 1A (Homo sapiens) (UniProt P48039)", "assay": "Inhibition of human MT1 receptor at 10 uM relative to control"}, "[33]": {"target": "Muscarinic acetylcholine receptor M2 (Homo sapiens) (UniProt P08172)", "assay": "Inhibition of human muscarinic M2 receptor at 10 uM relative to control"}, "[34]": {"target": "Neuropeptide Y receptor type 2 (Homo sapiens) (UniProt P49146)", "sequence (P49146 whole entry)": "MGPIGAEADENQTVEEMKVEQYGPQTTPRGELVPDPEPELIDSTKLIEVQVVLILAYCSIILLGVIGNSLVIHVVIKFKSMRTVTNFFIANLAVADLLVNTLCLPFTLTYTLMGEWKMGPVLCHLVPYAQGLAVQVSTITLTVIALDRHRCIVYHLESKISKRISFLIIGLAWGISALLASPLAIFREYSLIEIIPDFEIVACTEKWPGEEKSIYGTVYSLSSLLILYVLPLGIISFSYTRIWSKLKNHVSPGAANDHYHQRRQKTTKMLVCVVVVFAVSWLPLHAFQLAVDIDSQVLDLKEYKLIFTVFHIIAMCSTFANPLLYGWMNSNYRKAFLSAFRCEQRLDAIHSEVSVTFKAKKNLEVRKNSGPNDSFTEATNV", "assay": "Inhibition of human […] Y2 receptor at 10 uM relative to control"}, "Homo sapiens [35]": {"species_on_record": "Homo sapiens", "assay": "Inhibition of human nicotinic acetylcholine receptor at 10 uM relative to control"}, "Mesocricetus auratus": {"species_on_record": "Mesocricetus auratus", "assay": "Inhibition of syrian hamster KATP at 10 uM relative to control"}, "hERG (KCNH2)": {"target": "hERG (KCNH2) (Homo sapiens, UniProt Q12809)", "assay": "Inhibition of human ERG at 10 uM relative to control"}, "Oryctolagus cuniculus": {"species_on_record": "Oryctolagus cuniculus", "assay": "Inhibition of rabbit P2X receptor at 10 uM relative to control"}, "[36]": {"target": "Sigma non-opioid intracellular receptor 1 (Homo sapiens) (UniProt Q99720)", "sequence (Q99720 whole entry)": "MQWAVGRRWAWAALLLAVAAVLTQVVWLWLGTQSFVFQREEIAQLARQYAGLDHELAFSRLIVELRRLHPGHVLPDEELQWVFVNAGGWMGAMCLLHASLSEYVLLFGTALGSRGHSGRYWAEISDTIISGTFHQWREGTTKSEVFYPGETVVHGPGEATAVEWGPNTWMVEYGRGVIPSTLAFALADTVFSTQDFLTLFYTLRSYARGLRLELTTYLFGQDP", "assay": "Inhibition of human sigma 1 receptor at 10 uM relative to control"}, "Rattus norvegicus [37]": {"species_on_record": "Rattus norvegicus", "assay": "Inhibition of rat sodium channel site 2 at 10 uM relative to control"}, "[38]": {"target": "Sodium-dependent dopamine transporter (Homo sapiens) (UniProt Q01959)", "assay": "Inhibition of human DAT at 10 uM relative to control"}}, "note": "pEC50, pIC50: −log10 of the molar value. The source made the active and inactive calls. The rule behind the calls is not given here."}
{"compound": "C[C@@H](COc1ccn(-c2ccc(F)cc2)c(=O)c1)Oc1ccccc1", "values": [{"measurement": "pIC50", "setting": "[1]", "value": 6.61}, {"measurement": "pEC50", "setting": "[2]", "value": "< 4.52"}, {"measurement": "fraction unbound at 4 h, 5 µM", "setting": "[3]", "value": 0.18}, {"measurement": "fraction unbound at 6 h, 5 µM", "setting": "[4]", "value": 0.06}, {"measurement": "Kp uu", "setting": "[5]", "value": 0.4}, {"measurement": "inhibition", "setting": "[6]", "value": "inactive"}, {"measurement": "inhibition", "setting": "[7]", "value": "inactive"}, {"measurement": "fu", "setting": "[8]", "value": 0.18}, {"measurement": "Kp", "setting": "[9]", "value": 1.17}, {"measurement": "Kp uu", "setting": "[10]", "value": 0.26}, {"measurement": "minimal effective dose", "setting": "Mus musculus", "value": 3, "unit": "mg/kg"}, {"measurement": "concentration", "setting": "[11]", "value": 1200, "unit": "nM"}, {"measurement": "inhibition", "setting": "[12]", "value": "> 50", "unit": "%"}, {"measurement": "inhibition", "setting": "[13]", "value": "> 50", "unit": "%"}, {"measurement": "inhibition", "setting": "[14]", "value": "> 50", "unit": "%"}, {"measurement": "inhibition", "setting": "[15]", "value": "> 50", "unit": "%"}, {"measurement": "inhibition", "setting": "Rattus norvegicus [16]", "value": "> 50", "unit": "%"}, {"measurement": "inhibition", "setting": "[17]", "value": "> 50", "unit": "%"}, {"measurement": "inhibition", "setting": "[18]", "value": "> 50", "unit": "%"}, {"measurement": "inhibition", "setting": "[19]", "value": "> 50", "unit": "%"}, {"measurement": "inhibition", "setting": "[20]", "value": "> 50", "unit": "%"}, {"measurement": "inhibition", "setting": "Homo sapiens [21]", "value": "> 50", "unit": "%"}, {"measurement": "inhibition", "setting": "[22]", "value": "> 50", "unit": "%"}, {"measurement": "inhibition", "setting": "[23]", "value": "> 50", "unit": "%"}, {"measurement": "inhibition", "setting": "[24]", "value": "> 50", "unit": "%"}, {"measurement": "inhibition", "setting": "[25]", "value": "> 50", "unit": "%"}, {"measurement": "inhibition", "setting": "[26]", "value": "> 50", "unit": "%"}, {"measurement": "inhibition", "setting": "[27]", "value": "> 50", "unit": "%"}, {"measurement": "inhibition", "setting": "[28]", "value": "> 50", "unit": "%"}, {"measurement": "inhibition", "setting": "[29]", "value": "> 50", "unit": "%"}, {"measurement": "inhibition", "setting": "[30]", "value": "> 50", "unit": "%"}, {"measurement": "inhibition", "setting": "Rattus norvegicus [31]", "value": "> 50", "unit": "%"}, {"measurement": "inhibition", "setting": "[32]", "value": "> 50", "unit": "%"}, {"measurement": "inhibition", "setting": "[33]", "value": "> 50", "unit": "%"}, {"measurement": "inhibition", "setting": "[34]", "value": "> 50", "unit": "%"}, {"measurement": "inhibition", "setting": "Homo sapiens [35]", "value": "> 50", "unit": "%"}, {"measurement": "inhibition", "setting": "Mesocricetus auratus", "value": "> 50", "unit": "%"}, {"measurement": "inhibition at 10 µM", "setting": "hERG (KCNH2)", "value": "> 50", "unit": "%"}, {"measurement": "inhibition", "setting": "Oryctolagus cuniculus", "value": "> 50", "unit": "%"}, {"measurement": "inhibition", "setting": "[36]", "value": "> 50", "unit": "%"}, {"measurement": "inhibition", "setting": "Rattus norvegicus [37]", "value": "> 50", "unit": "%"}, {"measurement": "inhibition", "setting": "[38]", "value": "> 50", "unit": "%"}]}
